# Source: patent US9550796B2, “Pyrrolopyrrolone derivatives and their use as BET inhibitors” (NOVARTIS AG, priority 2013, dated 2017)
# Key:
# [1] = molecular target: BRD2 (Homo sapiens (Human), UniProt P25440); assay: TR-FRET in-vitro binding assay for BRD2; conditions: 45 nM His-Brd2(60-472), acetyl-histone H4 (AcK 5, 8, 12, 16) peptide
# Method in brief: (§1)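 TR-FRET binding read after 35 min incubation at 30° C. Compounds dispensed from 90% DMSO solutions and tested at 8 concentrations in a 13.55 μL total reaction volume.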
# [2] = molecular target: BRD4 (Homo sapiens (Human), UniProt O60885); assay: TR-FRET in-vitro binding assay for BRD4; conditions: 45 nM His-Brd4(44-477), acetyl-histone H4 (AcK 5, 8, 12, 16) peptide
# Method in brief: as §1
# [3] = test system: THP-1; assay: Cell growth inhibition assay (CellTiter-Glo), THP-1; format: cell-based, human; conditions: THP-1 cells, 4 days; for GI50: Homo sapiens, 96 h, half-maximal growth inhibition; for THP-1 TGI: total growth inhibition
# Method in brief: (§2)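 A separate day 0 plate allows cytotoxic and cytostatic effects to be distinguished: viable-cell ATP after 4-day compound treatment (top 10 μM, 3-fold steps) is expressed relative to it. DMSO-only wells count as 100% and medium-only wells as −100%.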
# [4] = molecular target: CREBBP (Homo sapiens (Human), UniProt Q92793); assay: AlphaScreen in-vitro binding assay for CREBBP; conditions: 324 nM His-CREBBP (1081-1197), acetyl-histone H4 (AcK 5, 8, 12) peptide
# Sequence of CREBBP (Q92793 1081-1197): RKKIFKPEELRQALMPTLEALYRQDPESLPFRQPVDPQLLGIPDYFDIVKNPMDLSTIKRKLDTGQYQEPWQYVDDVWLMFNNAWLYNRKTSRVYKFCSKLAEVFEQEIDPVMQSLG
# Method in brief: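 IC50 values were derived by non-linear regression of percent inhibition across 8 compound concentrations. Protein was His-tagged CREBBP bromodomain (1081-1197), peptide acetyl-histone H4 (AcK 5, 8, 12), in HEPES pH 7.5 buffer. Read-out was AlphaScreen with Ni-chelate acceptor and streptavidin donor beads, 35 min at 30° C then 60 min at RT.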
# [5] = molecular target: BRD3 (Homo sapiens (Human), UniProt Q15059); assay: TR-FRET in-vitro binding assay for BRD3; conditions: 45 nM His-Brd3(20-477), acetyl-histone H4 (AcK 5, 8, 12, 16) peptide
# Sequence of BRD3 (Q15059 20-477): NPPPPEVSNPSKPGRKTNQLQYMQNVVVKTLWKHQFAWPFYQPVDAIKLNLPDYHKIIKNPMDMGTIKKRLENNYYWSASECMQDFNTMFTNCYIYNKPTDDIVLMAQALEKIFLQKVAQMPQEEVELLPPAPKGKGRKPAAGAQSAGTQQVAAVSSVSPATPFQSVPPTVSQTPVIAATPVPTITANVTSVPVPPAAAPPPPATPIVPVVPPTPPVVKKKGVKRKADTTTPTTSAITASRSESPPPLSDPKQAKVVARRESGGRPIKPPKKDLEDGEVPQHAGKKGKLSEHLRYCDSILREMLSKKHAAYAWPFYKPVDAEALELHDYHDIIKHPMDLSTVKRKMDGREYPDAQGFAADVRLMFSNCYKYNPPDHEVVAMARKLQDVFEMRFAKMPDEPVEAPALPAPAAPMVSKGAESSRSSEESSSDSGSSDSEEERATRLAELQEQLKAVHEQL
# Method in brief: as §1
# [6] = test system: MV-4-11; assay: Cell growth inhibition assay (CellTiter-Glo), MV-4-11; format: cell-based, human; conditions: MV-4-11 cells, 4 days; for GI50: Homo sapiens, MV4-11, 96 h, half-maximal growth inhibition; for MV-4-11 TGI: total growth inhibition
# Method in brief: as §2
# [7] = test system: K-562; assay: Cell growth inhibition assay (CellTiter-Glo), K-562; format: cell-based, human; conditions: K-562 cells, 4 days; for GI50: Homo sapiens, K562, 96 h, half-maximal growth inhibition; for K-562 TGI: total growth inhibition
# Method in brief: as §2
# Sequence of BRD2 (P25440 60-472): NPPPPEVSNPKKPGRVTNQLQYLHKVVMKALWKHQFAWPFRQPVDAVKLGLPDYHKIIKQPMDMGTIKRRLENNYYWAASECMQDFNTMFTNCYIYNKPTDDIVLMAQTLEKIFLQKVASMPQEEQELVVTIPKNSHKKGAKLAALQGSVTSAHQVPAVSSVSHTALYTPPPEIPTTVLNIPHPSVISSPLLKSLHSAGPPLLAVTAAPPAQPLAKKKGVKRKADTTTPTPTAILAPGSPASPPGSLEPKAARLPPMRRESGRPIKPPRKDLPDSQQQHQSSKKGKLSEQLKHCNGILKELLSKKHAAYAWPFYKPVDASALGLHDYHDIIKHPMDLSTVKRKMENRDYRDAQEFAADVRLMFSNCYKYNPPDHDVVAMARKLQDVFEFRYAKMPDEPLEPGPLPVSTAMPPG
IC50 [1] [µM],IC50 [2] [µM],GI50 [3] [µM],IC50 [4] [µM],IC50 [5] [µM],GI50 [6] [µM],GI50 [7] [µM],Structure (SMILES),THP-1 TGI [3] [µM],MV-4-11 TGI [6] [µM],K-562 TGI [7] [µM]
0.1,0.12,0.426,0.18,0.085,0.0944,0.68,"Cc1cc(N2C(=O)c3cc(-c4cccc(=O)n4C)n(C4CC4)c3C2c2ccc(Cl)cc2)cn(C)c1=O (stereo not drawn) [Example 63, 6-(4-chlorophenyl)-1-cyclopropyl-5-(1,5-dimethyl-6-oxo-1,6-dihydropyridin-3-yl)-2-(1-methyl-6-oxo-1,6-dihydropyridin-2-yl)-5,6-dihydropyrrolo[3,4-b]pyrrol-4(1H)-one]",0.788,0.16,>10
0.05,0.085,0.109,1.5,0.082,0.118,0.353,"Cn1cc(N2C(=O)c3cc(-c4cccn(C)c4=O)n(C4CC4)c3C2c2ccc(Cl)cc2)cc(Cl)c1=O (stereo not drawn) [Example 64, 5-(5-chloro-1-methyl-6-oxo-1,6-dihydropyridin-3-yl)-6-(4-chlorophenyl)-1-cyclopropyl-2-(1-methyl-2-oxo-1,2-dihydropyridin-3-yl)-5,6-dihydropyrrolo[3,4-b]pyrrol-4(1H)-one]",0.2155,0.196,>10
0.042,0.088,0.143,0.3,0.085,0.0667,0.405,"Cc1cc(N2C(=O)c3cc(-c4ccc(=O)n(C)c4)n(C4CC4)c3C2c2ccc(Cl)cc2)cn(C)c1=O (stereo not drawn) [Example 67, 6-(4-chlorophenyl)-1-cyclopropyl-5-(1,5-dimethyl-6-oxo-1,6-dihydropyridin-3-yl)-2-(1-methyl-6-oxo-1,6-dihydropyridin-3-yl)-5,6-dihydropyrrolo[3,4-b]pyrrol-4(1H)-one]",0.353,0.118,>10
0.0672,0.0632,0.0468,0.62,0.0522,0.0287,0.148,"Cc1cc(N2C(=O)c3cc(C4CC4)n(C)c3C2c2ccc(Cl)cc2)cn(C)c1=O (stereo not drawn) [Example 68, 6-(4-chlorophenyl)-2-cyclopropyl-5-(1,5-dimethyl-6-oxo-1,6-dihydropyridin-3-yl)-1-methyl-5,6-dihydropyrrolo[3,4-b]pyrrol-4(1H)-one]",0.096,0.0517,>10
0.159,0.121,0.065,1.2,0.087,0.0378,0.236,"Cc1cc(N2C(=O)c3cc(C)n(C)c3C2c2ccc(Cl)cc2)cn(C)c1=O (stereo not drawn) [Example 69, 6-(4-chlorophenyl)-5-(1,5-dimethyl-6-oxo-1,6-dihydropyridin-3-yl)-1,2-dimethyl-5,6-dihydropyrrolo[3,4-b]pyrrol-4(1H)-one]",0.144,0.0843,>10
0.171,0.0897,0.159,1.43,0.0907,0.0764,0.294,"Cc1cc(N2C(=O)c3ccn(C)c3C2c2ccc(Cl)cc2)cn(C)c1=O (stereo not drawn) [Example 72, 6-(4-chlorophenyl)-5-(1,5-dimethyl-6-oxo-1,6-dihydropyridin-3-yl)-1-methyl-5,6-dihydropyrrolo[3,4-b]pyrrol-4(1H)-one]",0.301,0.125,>10
0.66,0.434,0.396,26.8,0.223,0.295,1.79,"Cc1cc(N2C(=O)c3ccn(C)c3C2c2ccccc2)cn(C)c1=O (stereo not drawn) [Example 79, 5-(1,5-dimethyl-6-oxo-1,6-dihydropyridin-3-yl)-1-methyl-6-phenyl-5,6-dihydropyrrolo[3,4-b]pyrrol-4(1H)-one]",0.904,0.496,>10
0.292,0.153,0.146,1.5,0.147,0.148,0.455,"Cc1cc(N2C(=O)c3ccn(C)c3C2c2ccc(Cl)c(F)c2)cn(C)c1=O (stereo not drawn) [Example 80, 6-(4-chloro-3-fluorophenyl)-5-(1,5-dimethyl-6-oxo-1,6-dihydropyridin-3-yl)-1-methyl-5,6-dihydropyrrolo[3,4-b]pyrrol-4(1H)-one]",0.3695,0.267,>10
0.126,0.131,0.149,4.5,0.0813,0.0798,0.721,"Cc1ccc(C2c3c(ccn3C)C(=O)N2c2cc(C)c(=O)n(C)c2)cc1 (stereo not drawn) [Example 81, 5-(1,5-dimethyl-6-oxo-1,6-dihydropyridin-3-yl)-1-methyl-6-(p-tolyl)-5,6-dihydropyrrolo[3,4-b]pyrrol-4(1H)-one]",0.3,0.121,>10
0.23,0.195,0.206,4.7,0.14,0.104,0.618,"Cc1cc(N2C(=O)c3ccn(C)c3C2c2ccc(F)cc2)cn(C)c1=O (stereo not drawn) [Example 82, 5-(1,5-dimethyl-6-oxo-1,6-dihydropyridin-3-yl)-6-(4-fluorophenyl)-1-methyl-5,6-dihydropyrrolo[3,4-b]pyrrol-4(1H)-one]",0.397,0.189,>10
0.273,0.323,0.634,7.15,0.2,0.326,1.13,"Cc1cc(N2C(=O)c3ccn(C)c3C2c2ccc(C#N)cc2)cn(C)c1=O (stereo not drawn) [Example 83, 4-(5-(1,5-dimethyl-6-oxo-1,6-dihydropyridin-3-yl)-1-methyl-4-oxo-1,4,5,6-tetrahydropyrrolo[3,4-b]pyrrol-6-yl)benzonitrile]",1.27,0.636,>10
0.196,0.23,0.167,4.7,0.161,0.158,0.548,"COc1ccc(C2c3c(ccn3C)C(=O)N2c2cc(C)c(=O)n(C)c2)cc1 (stereo not drawn) [Example 84, 5-(1,5-dimethyl-6-oxo-1,6-dihydropyridin-3-yl)-6-(4-methoxyphenyl)-1-methyl-5,6-dihydropyrrolo[3,4-b]pyrrol-4(1H)-one]",0.4195,0.3385,>10
0.433,0.437,0.392,18.4,0.277,0.338,1.1,"Cn1ccc2c1C(c1ccccc1)N(c1cc(Cl)c(=O)n(C)c1)C2=O (stereo not drawn) [Example 86, 5-(5-chloro-1-methyl-6-oxo-1,6-dihydropyridin-3-yl)-1-methyl-6-phenyl-5,6-dihydropyrrolo[3,4-b]pyrrol-4(1H)-one]",0.7955,0.642,>10
0.108,0.12,0.0839,4.1,0.0763,0.0753,0.266,"Cc1ccc(C2c3c(ccn3C)C(=O)N2c2cc(Cl)c(=O)n(C)c2)cc1 (stereo not drawn) [Example 87, 5-(5-chloro-1-methyl-6-oxo-1,6-dihydropyridin-3-yl)-1-methyl-6-(p-tolyl)-5,6-dihydropyrrolo[3,4-b]pyrrol-4(1H)-one]",0.255,0.151,>10
0.287,0.33,0.321,7.6,0.19,0.21,0.715,"Cn1ccc2c1C(c1ccc(F)cc1)N(c1cc(Cl)c(=O)n(C)c1)C2=O (stereo not drawn) [Example 88, 5-(5-chloro-1-methyl-6-oxo-1,6-dihydropyridin-3-yl)-6-(4-fluorophenyl)-1-methyl-5,6-dihydropyrrolo[3,4-b]pyrrol-4(1H)-one]",0.683,0.359,>10
